Legend:
Assay type in all cases: in vivo
[1] = test system: redroot pigweed (Amaranthus retroflexus, AMARE); assay: Pre-emerge test, greenhouse herbicide activity screening; conditions: pre-emerge, 14 days after application
Description: (§1) A standard greenhouse herbicide activity screening system was used to evaluate the herbicidal efficacy and crop safety of these test compounds. Seven broadleaf weed species including redroot pigweed (Amaranthus retroflexus, AMARE, velvetleaf (Abutilon theophrasti, ABUTH), sicklepod (Cassia obtusifolia, CASOB), ivyleaf morningglory (Ipomoea hederacea, IPOHE), lambsquarters (Chenopodium album, CHEAL), common ragweed (Ambrosia artemisizfolia L., AMBEL), and cocklebur (Xanthium strumarium, XANST) were used as test species. Four grass weed species including green foxtail (Setaria viridis, SETVI), barnyardgrass (Echinochloa crus-galli, ECHCG), johnsongrass (Sorghum halepense, SORHA), and large crabgrass (Digitaria sanguinalis, DIGSA) were also used. In addition, three crop species, field corn (Zea mays L., var. Dekalb 535, CORN), soybean (Glycine max L., var. Pella 86, SOY), and is upland rice (Oryza sp., var. Tebonnet, RICE) were included.
(§2) All plants were grown in 10 cm square plastic pots which were filled with a sandy loam soil mix. For pre-emerge tests, seeds were planted one day prior to application of the test compounds. For post-emerge tests, seeds were planted 8-21 days prior to the test to allow emergence and good foliage development prior to application of the test substances. At the time of the post-emerge application, plants of all species were usually at the 2-3 leaf stage of development.
All test compounds Were dissolved in acetone and applied to the test units in a volume of 187 l /ha. […] Plants were arranged on a shelf so that the top of the canopy (post-emerge) or top of the soil surface (pre-emerge) was 40-45 cm below the nozzle. Pressurized air was used to force the test solution through the nozzle as it was mechanically advanced (via electrically driven chain drive) over the top of all test plants/pots. This application simulates a typical commercial field herbicide application.
(§3) In the post-emerge test, a commercial non-ionic surfactant was also included (0.25% v/v) to enhance wetting of the leaf surfaces of target plants. Immediately after application, test units of the pre-emerge applications were watered at the soil surface to incorporate the test materials. Subsequently, these test units were bottom-watered. Post-emerge test units were always bottom-watered.
(§4) At 14 days after application of the test materials, phytotoxicity ratings were recorded. A rating scale of 0-100 was used as previously described in Research Methods in Weed Science, 2nd edition, B. Truelove, Ed., Southern Weed Science Society, Auburn University, Auburn, Ala. 1977. Briefly, “0” corresponds to no damage and “100” corresponds to complete death of all plants in the test unit. This scale was used both to determine efficacy against weed species and damage to crop species. Herbicide activity data for various compounds of this invention, which are shown by compound No. in Tables 1-8, are shown in Tables 11 and 12.

[2] = test system: lambsquarters (Chenopodium album, CHEAL); assay: Post-emerge test, greenhouse herbicide activity screening; conditions: post-emerge, 14 days after application, rating scale 0-100
Description: as §1, §2
(§5) All test compounds Were dissolved in acetone and applied to the test units in a volume of 187 l /ha. Test materials were applied at rates ranging from 15 g ai/ha to 1000 g ai/ha using a track sprayer equipped with a TJ8001E even flow flat fan spray nozzle. Plants were arranged on a shelf so that the top of the canopy (post-emerge) or top of the soil surface (pre-emerge) was 40-45 cm below the nozzle. Pressurized air was used to force the test solution through the nozzle as it was mechanically advanced (via electrically driven chain drive) over the top of all test plants/pots. This application simulates a typical commercial field herbicide application.
as §3, §4

[3] = test system: sicklepod (Cassia obtusifolia, CASOB); assay: as above; conditions: post-emerge, 14 days after application, rating scale 0-100
Description: as §1, §2, §5, §3, §4

[4] = test system: velvetleaf (Abutilon theophrasti, ABUTH); assay: as above; conditions: post-emerge, 14 days after application, rating scale 0-100
Description: as §1, §2, §5, §3, §4

[5] = test system: ivyleaf morningglory (Ipomoea hederacea, IPOHE); assay: as above; conditions: post-emerge, 14 days after application, rating scale 0-100
Description: as §1, §2, §5, §3, §4

[6] = test system: barnyardgrass (Echinochloa crus-galli, ECHCG); assay: as above; conditions: post-emerge, 14 days after application, rating scale 0-100
Description: as §1, §2, §5, §3, §4

[7] = test system: green foxtail (Setaria viridis, SETVI); assay: as above; conditions: post-emerge, 14 days after application, rating scale 0-100
Description: as §1, §2, §5, §3, §4

[8] = test system: large crabgrass (Digitaria sanguinalis, DIGSA); assay: as above; conditions: post-emerge, 14 days after application, rating scale 0-100
Description: as §1, §2, §5, §3, §4

[9] = test system: redroot pigweed (Amaranthus retroflexus, AMARE); assay: as above; conditions: post-emerge, 14 days after application
Description: as §1, §2, §5, §3, §4

[10] = test system: lambsquarters (Chenopodium album, CHEAL); assay: Pre-emerge test, greenhouse herbicide activity screening; conditions: pre-emerge, 14 days after application
Description: as §1, §2, §5, §3, §4

[11] = test system: sicklepod (Cassia obtusifolia, CASOB); assay: as above; conditions: pre-emerge, 14 days after application
Description: as §1, §2, §5, §3, §4

[12] = test system: velvetleaf (Abutilon theophrasti, ABUTH); assay: as above; conditions: pre-emerge, 14 days after application
Description: as §1, §2, §5, §3, §4

[13] = test system: ivyleaf morningglory (Ipomoea hederacea, IPOHE); assay: as above; conditions: pre-emerge, 14 days after application
Description: as §1, §2, §5, §3, §4

[14] = test system: barnyardgrass (Echinochloa crus-galli, ECHCG); assay: as above; conditions: pre-emerge, 14 days after application
Description: as §1, §2, §5, §3, §4

[15] = test system: green foxtail (Setaria viridis, SETVI); assay: as above; conditions: pre-emerge, 14 days after application
Description: as §1, §2, §5, §3, §4

[16] = test system: large crabgrass (Digitaria sanguinalis, DIGSA); assay: as above; conditions: pre-emerge, 14 days after application
Description: as §1, §2, §5, §3, §4

[17] = test system: field corn (Zea mays L., var. Dekalb 535, CORN); assay: Pre-emerge test, crop safety; conditions: pre-emerge, 14 days after application; for phytotoxicity rating CORN: rating scale 0-100; for phytotoxicity rating CORN (crop damage): scale 0-100
Description: as §1, §2, §5, §3, §4

[18] = test system: upland rice (Oryza sp., var. Tebonnet, RICE); assay: Pre-emerge test, crop safety; conditions: pre-emerge, 14 days after application; for phytotoxicity rating RICE: rating scale 0-100; for phytotoxicity rating RICE (crop damage): scale 0-100
Description: as §1, §2, §5, §3, §4

[19] = test system: field corn (Zea mays L., var. Dekalb 535, CORN); assay: Post-emerge test, crop safety; conditions: post-emerge, 14 days after application, rating scale 0-100
Description: as §1, §2, §5, §3, §4

[20] = test system: upland rice (Oryza sp., var. Tebonnet, RICE); assay: Post-emerge test, crop safety; conditions: post-emerge, 14 days after application, rating scale 0-100
Description: as §1, §2, §5, §3, §4

[21] = 250 g ai/ha, rating scale 0-100

## COc1c(Cl)cc(F)c(-n2c(=O)cc(C(F)(F)F)n(C)c2=O)c1NN=Cc1ccc(F)cc1F [15-20]
[1]; 63 g ai/ha, rating scale 0-100
  phytotoxicity rating AMARE: 100
[1]; [21]
  phytotoxicity rating AMARE: 100
[2]; 63 g ai/ha
  Post-emerge Herbicidal Activity CHEAL (phytotoxicity rating): 100
[2]; 250 g ai/ha
  Post-emerge Herbicidal Activity CHEAL (phytotoxicity rating): 100
[3]; 63 g ai/ha
  Post-emerge Herbicidal Activity CASOB (phytotoxicity rating): 80
[3]; 250 g ai/ha
  Post-emerge Herbicidal Activity CASOB (phytotoxicity rating): 100
[4]; 63 g ai/ha
  Post-emerge Herbicidal Activity ABUTH (phytotoxicity rating): 100
[4]; 250 g ai/ha
  Post-emerge Herbicidal Activity ABUTH (phytotoxicity rating): 100
[5]; 63 g ai/ha
  Post-emerge Herbicidal Activity IPOHE (phytotoxicity rating): 100
[5]; 250 g ai/ha
  Post-emerge Herbicidal Activity IPOHE (phytotoxicity rating): 100
[6]; 63 g ai/ha
  Post-emerge Herbicidal Activity ECHCG (phytotoxicity rating): 50
[6]; 250 g ai/ha
  Post-emerge Herbicidal Activity ECHCG (phytotoxicity rating): 100
[7]; 63 g ai/ha
  Post-emerge Herbicidal Activity SETVI (phytotoxicity rating): 80
[7]; 250 g ai/ha
  Post-emerge Herbicidal Activity SETVI (phytotoxicity rating): 100
[8]; 63 g ai/ha
  Post-emerge Herbicidal Activity DIGSA (phytotoxicity rating): 30
[8]; 250 g ai/ha
  Post-emerge Herbicidal Activity DIGSA (phytotoxicity rating): 90
[9]; 63 g ai/ha, rating scale 0-100 (0 no damage, 100 complete death)
  Post-emerge Herbicidal Activity AMARE (phytotoxicity rating): 100
[9]; [21]
  Post-emerge Herbicidal Activity AMARE (phytotoxicity rating): 100
[10]; 63 g ai/ha, rating scale 0-100
  phytotoxicity rating CHEAL: 100
[10]; [21]
  phytotoxicity rating CHEAL: 100
[11]; 63 g ai/ha, rating scale 0-100
  phytotoxicity rating CASOB: 60
[11]; [21]
  phytotoxicity rating CASOB: 100
[12]; 63 g ai/ha, rating scale 0-100
  phytotoxicity rating ABUTH: 100
[12]; [21]
  phytotoxicity rating ABUTH: 100
[13]; 63 g ai/ha, rating scale 0-100
  phytotoxicity rating IPOHE: 80
[13]; [21]
  phytotoxicity rating IPOHE: 80
[14]; 63 g ai/ha, rating scale 0-100
  phytotoxicity rating ECHCG: 50
[14]; [21]
  phytotoxicity rating ECHCG: 100
[15]; 63 g ai/ha, rating scale 0-100
  phytotoxicity rating SETVI: 100
[15]; [21]
  phytotoxicity rating SETVI: 100
[16]; 63 g ai/ha, rating scale 0-100
  phytotoxicity rating DIGSA: 100
[16]; [21]
  phytotoxicity rating DIGSA: 100
[17]; 63 g ai/ha
  phytotoxicity rating CORN: 65
[17]; 250 g ai/ha
  phytotoxicity rating CORN: 95
[18]; 63 g ai/ha
  phytotoxicity rating RICE: 70
[18]; 250 g ai/ha
  phytotoxicity rating RICE: 100
[19]; 63 g ai/ha
  Post-emerge Herbicidal Activity CORN (crop damage rating): 40
[19]; 250 g ai/ha
  Post-emerge Herbicidal Activity CORN (crop damage rating): 85
[20]; 63 g ai/ha
  Post-emerge Herbicidal Activity RICE (crop damage rating): 35
[20]; 250 g ai/ha
  Post-emerge Herbicidal Activity RICE (crop damage rating): 80

## COc1c(Cl)cc(F)c(-n2c(=O)cc(C(F)(F)F)n(N)c2=O)c1NC(=O)COCc1ccccc1 [2-187]
[1]; 63 g ai/ha, scale 0-100
  phytotoxicity rating AMARE: 100
[1]; 250 g ai/ha, scale 0-100
  phytotoxicity rating AMARE: 100
[2]; 63 g ai/ha
  CHEAL phytotoxicity rating: 100
[2]; 250 g ai/ha
  CHEAL phytotoxicity rating: 100
[3]; 63 g ai/ha
  CASOB phytotoxicity rating: 70
[3]; 250 g ai/ha
  CASOB phytotoxicity rating: 100
[4]; 63 g ai/ha
  ABUTH phytotoxicity rating: 100
[4]; 250 g ai/ha
  ABUTH phytotoxicity rating: 100
[5]; 63 g ai/ha
  IPOHE phytotoxicity rating: 100
[5]; 250 g ai/ha
  IPOHE phytotoxicity rating: 100
[6]; 63 g ai/ha
  ECHCG phytotoxicity rating: 20
[6]; 250 g ai/ha
  ECHCG phytotoxicity rating: 40
[7]; 63 g ai/ha
  SETVI phytotoxicity rating: 40
[7]; 250 g ai/ha
  SETVI phytotoxicity rating: 60
[8]; 63 g ai/ha
  DIGSA phytotoxicity rating: 10
[8]; 250 g ai/ha
  DIGSA phytotoxicity rating: 40
[9]; 63 g ai/ha, rating scale 0-100
  AMARE phytotoxicity rating: 99
[9]; [21]
  AMARE phytotoxicity rating: 100
[10]; 63 g ai/ha, scale 0-100
  phytotoxicity rating CHEAL: 100
[10]; 250 g ai/ha, scale 0-100
  phytotoxicity rating CHEAL: 100
[11]; 63 g ai/ha, scale 0-100
  phytotoxicity rating CASOB: 60
[11]; 250 g ai/ha, scale 0-100
  phytotoxicity rating CASOB: 100
[12]; 63 g ai/ha, scale 0-100
  phytotoxicity rating ABUTH: 100
[12]; 250 g ai/ha, scale 0-100
  phytotoxicity rating ABUTH: 100
[13]; 63 g ai/ha, scale 0-100
  phytotoxicity rating IPOHE: 75
[13]; 250 g ai/ha, scale 0-100
  phytotoxicity rating IPOHE: 100
[14]; 63 g ai/ha, scale 0-100
  phytotoxicity rating ECHCG: 20
[14]; 250 g ai/ha, scale 0-100
  phytotoxicity rating ECHCG: 60
[15]; 63 g ai/ha, scale 0-100
  phytotoxicity rating SETVI: 50
[15]; 250 g ai/ha, scale 0-100
  phytotoxicity rating SETVI: 100
[16]; 63 g ai/ha, scale 0-100
  phytotoxicity rating DIGSA: 90
[16]; 250 g ai/ha, scale 0-100
  phytotoxicity rating DIGSA: 100
[17]; 63 g ai/ha
  phytotoxicity rating CORN (crop damage): 0
[17]; 250 g ai/ha
  phytotoxicity rating CORN (crop damage): 90
[18]; 63 g ai/ha
  phytotoxicity rating RICE (crop damage): 40
[18]; 250 g ai/ha
  phytotoxicity rating RICE (crop damage): 90
[19]; 63 g ai/ha
  CORN phytotoxicity rating (crop damage): 15
[19]; 250 g ai/ha
  CORN phytotoxicity rating (crop damage): 75
[20]; 63 g ai/ha
  RICE phytotoxicity rating (crop damage): 50
[20]; 250 g ai/ha
  RICE phytotoxicity rating (crop damage): 90
